The test system of test [1] is pAKT(S473) in FaDu cell line. Put plainly: In vitro Phospho-AKT(S473) HTRF analysis in FaDu cells. Format: cell-based. The note with it: for IC50 / Emax: Homo sapiens, 0.5 h; for IC50: FaDu cells, 30 minutes at 37° C.; for Emax: FaDu, read-out: FaDu pAKT Imax % control. Summed up:
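FaDu or H358 cells were plated overnight in medium with 1% FBS, then exposed to a compound dose response for 30 minutes at 37° C. Phospho-AKT(S473) levels were measured by HTRF.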

Test [2] deals with pAKT(S473) in H358 cell line. Put plainly: In vitro Phospho-AKT(S473) HTRF analysis in H358 cells. The class given is cell-based. The note with it: for IC50 / Emax: Homo sapiens, NCI-H358, 0.5 h; for IC50: H358 cells, 30 minutes at 37° C.; for Emax: read-out: H358 pAKT Imax % control. As for the experimental part: Example 5. In Vitro Phosgho-AKT(S473) Analysis
Functional activity of the compounds to inhibit pAKT were assessed in FaDu or H358 cell lines as indicated below.
• Complete Media • FBS, Corning catalog #35-010-CV • Anti-Anti, Gibco catalog #15240-062 • 96 well plate, Corning catalog #3610 • TrypLE, Gibco catalog #12604013 • Phospho-AKT(S473) HTRF kit, Cisbio catalog #64AKSPET
Cells were detached from the tissue culture flask with TrypLE. The cells were pelleted at 500×g for 5 min, TrypLe was removed and then resuspended in the necessary volume of media+1% FBS to give the appropriate cell density (17,500 cells/mL for FaDu; 20,000 cells/mL for H358). 100 μL of cell suspension/well was dispensed into the 96-well plate while keeping the outer wells of the plate free of cells and filled with PBS to prevent evaporation of interior wells. The plate was incubated at 37° C. and allowed to adhere overnight. The cells were treated with a dose response of compound and incubated at 37° C. for 30 minutes. The cells were then processed and pAKT(S473) levels were assessed following the specifications of the Cisbio HTRF kit.

A further test concerns the target T1, PIK3CA (Homo sapiens, UniProt P42336).
T1 construct: endogenous in cells; host or cells: Jurkat cell lysate
Put plainly: In vitro ELISA target engagement assay for PIK3CA in Jurkat cellular lysate (competition with PIK3CA Biotin Probe). The class given is binding. The note with it: 1 hour at rt, then 500 nM PIK3CA Biotin Probe, read-out: Elisa Target Engagement Assay (TE50). Put shortly:
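Jurkat lysate from sonicated frozen cells was preincubated 1 h at rt with serially diluted compound up to 200 μM, then labelled 1 h at rt with PIK3CA biotin probe at 500 nM final. Probe-bound PIK3CA was captured on antibody-coated plates and detected with Neutravidin-HRP luminescence; TE50 derived from the dose response.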

The target of the next test is T2, PIK3CA_C242 (Homo sapiens, UniProt P42336).
T2 construct: endogenous in cells; host or cells: Jurkat cell lysate
Put plainly: Proteomic TE50 (IA-DTB / TMT mass spectrometry) in Jurkat cell lysate. The class given is binding. The following applies: 1 hour at rt, 7-point dose response. Put shortly:
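Jurkat lysate (500 μg) treated with compound (7-point, 1:5 dilutions) for 1 h at rt, then labelled with 200 μM IA-DTB for 1 h. After digestion and streptavidin enrichment, the C242 peptide was quantified by targeted MS3 TMT. TE50 was derived from reporter-ion S/N dose-response curves.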

T1 sequence (P42336 whole entry): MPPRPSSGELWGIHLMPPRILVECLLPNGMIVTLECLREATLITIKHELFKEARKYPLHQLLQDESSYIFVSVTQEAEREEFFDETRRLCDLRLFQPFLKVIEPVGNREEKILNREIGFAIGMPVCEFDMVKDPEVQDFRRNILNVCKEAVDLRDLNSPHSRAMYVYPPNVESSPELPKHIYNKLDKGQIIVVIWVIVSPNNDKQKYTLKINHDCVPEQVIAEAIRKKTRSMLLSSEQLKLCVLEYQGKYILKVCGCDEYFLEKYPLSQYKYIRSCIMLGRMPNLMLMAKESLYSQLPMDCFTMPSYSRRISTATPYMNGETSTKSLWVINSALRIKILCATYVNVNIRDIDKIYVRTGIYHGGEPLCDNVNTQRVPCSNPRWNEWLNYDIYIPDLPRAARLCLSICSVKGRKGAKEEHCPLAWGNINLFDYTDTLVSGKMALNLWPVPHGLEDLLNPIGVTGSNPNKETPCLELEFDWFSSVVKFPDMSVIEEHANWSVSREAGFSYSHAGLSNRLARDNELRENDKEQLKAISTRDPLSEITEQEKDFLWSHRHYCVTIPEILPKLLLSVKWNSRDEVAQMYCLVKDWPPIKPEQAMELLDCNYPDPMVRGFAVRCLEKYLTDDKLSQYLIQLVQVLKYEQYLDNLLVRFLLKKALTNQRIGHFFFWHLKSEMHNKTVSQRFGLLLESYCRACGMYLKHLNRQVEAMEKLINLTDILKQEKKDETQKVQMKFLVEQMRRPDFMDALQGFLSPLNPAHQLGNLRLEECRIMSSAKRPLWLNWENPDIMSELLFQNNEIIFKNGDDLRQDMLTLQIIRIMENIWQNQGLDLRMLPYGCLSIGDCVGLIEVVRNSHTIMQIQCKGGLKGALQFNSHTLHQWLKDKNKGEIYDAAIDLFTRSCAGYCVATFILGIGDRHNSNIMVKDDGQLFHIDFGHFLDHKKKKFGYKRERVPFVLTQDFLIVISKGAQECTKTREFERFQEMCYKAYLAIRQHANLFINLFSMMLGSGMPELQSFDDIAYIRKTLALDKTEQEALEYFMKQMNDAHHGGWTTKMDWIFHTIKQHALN
T1 sequence (P27986 whole entry partner): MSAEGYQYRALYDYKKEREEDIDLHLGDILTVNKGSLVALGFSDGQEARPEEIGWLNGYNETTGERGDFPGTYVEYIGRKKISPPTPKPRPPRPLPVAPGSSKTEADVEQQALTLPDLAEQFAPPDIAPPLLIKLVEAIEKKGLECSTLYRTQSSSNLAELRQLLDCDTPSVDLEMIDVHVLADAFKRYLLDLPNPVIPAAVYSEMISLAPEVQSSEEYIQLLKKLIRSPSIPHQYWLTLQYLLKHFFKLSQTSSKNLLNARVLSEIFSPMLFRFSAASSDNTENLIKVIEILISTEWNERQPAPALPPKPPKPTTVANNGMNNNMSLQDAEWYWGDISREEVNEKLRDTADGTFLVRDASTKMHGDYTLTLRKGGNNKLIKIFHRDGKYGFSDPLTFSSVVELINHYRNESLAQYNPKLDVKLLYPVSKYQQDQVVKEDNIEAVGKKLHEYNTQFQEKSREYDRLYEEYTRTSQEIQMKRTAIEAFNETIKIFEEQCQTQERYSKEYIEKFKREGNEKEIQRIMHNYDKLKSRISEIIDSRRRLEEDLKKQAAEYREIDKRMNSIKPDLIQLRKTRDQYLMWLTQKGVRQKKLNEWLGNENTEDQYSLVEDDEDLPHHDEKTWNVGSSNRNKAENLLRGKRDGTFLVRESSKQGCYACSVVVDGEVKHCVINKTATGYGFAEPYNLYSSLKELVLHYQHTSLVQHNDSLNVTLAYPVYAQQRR
T2 sequence (P42336 whole entry): as the sequence (P42336 whole entry) above
T2 sequence (P27986 whole entry partner): as the sequence (P27986 whole entry partner) above

Regarding `C[C@H](/C=C\S(C)(=O)=O)NC(=O)[C@@]1(F)CCCN(C(=O)[C@H]2CN(CC(F)(F)F)C[C@H]2c2ccccc2Cl)CC1` [Compound 165, (R)-1-((3R,4R)-4-(2-chlorophenyl)-1-(2,2,2-trifluoroethyl)pyrrolidine-3-carbonyl)-4-fluoro-N—((R,Z)-4-(methylsulfonyl)but-3-en-2-yl)azepane-4-carboxamide], the IC50 is 214 nM in test [1], 115 nM in test [2] and 164 nM at PIK3CA. For the same compound, the figures for the Emax in test [1] and in test [2] were 96.7% and 95.7%, respectively.
In the case of `C[C@H](/C=C\S(C)(=O)=O)NC(=O)[C@@]1(F)CCCN(C(=O)[C@H]2CN(CC(F)(F)F)CC[C@@H]2c2ccccc2Cl)CC1` (single isomer, unassigned) [Compound 308, (R)-1-((3*R,4*S)-4-(2-chlorophenyl)-1-(2,2,2-trifluoroethyl)piperidine-3-carbonyl)-4-fluoro-N-((R,Z)-4-(methylsulfonyl)but-3-en-2-yl) azepane-4-carboxamide], the IC50 was found to be 580 nM in test [1], 408 nM in test [2] and 850 nM at PIK3CA. Further, the Emax came to 93.4% in test [1] and 91% in test [2].
As for `C[C@H](/C=C\S(C)(=O)=O)NC(=O)[C@@]1(F)CCCN(C(=O)[C@H]2CN(Cc3ccccc3)C[C@H]2c2ccccc2Cl)CC1` (single isomer, unassigned) [Compound 305, (R)-1-((3*R,4*R)-1-benzyl-4-(2-chlorophenyl)pyrrolidine-3-carbonyl)-4-fluoro-N-((R,Z)-4-(methylsulfonyl)but-3-en-2-yl)azepane-4-carboxamide], the IC50 in test [1] was 428 nM; in test [2] it was 396 nM; at PIK3CA, 650 nM. The Emax in test [1] was found to be 94.3%; in test [2], 90.7%.
For `C[C@H](/C=C\S(C)(=O)=O)NC(=O)[C@@]1(F)CCCN(C(=O)[C@H]2CN(CCC(F)(F)F)C[C@H]2c2ccccc2Cl)CC1` [Compound 196, (R)-1-((3R,4R)-4-(2-chlorophenyl)-1-(3,3,3-trifluoropropyl)pyrrolidine-3-carbonyl)-4-fluoro-N-((R,Z)-4-(methylsulfonyl)but-3-en-2-yl)azepane-4-carboxamide], the IC50 is 450 nM in test [1], 329 nM in test [2] and 530 nM at PIK3CA. Besides, the Emax turned out to be 86.4% in test [1] and 96.3% in test [2].
In the case of `C[C@H](/C=C\S(C)(=O)=O)NC(=O)C1(F)CCN(S(=O)(=O)c2ccc(Br)cc2-c2ccccc2Cl)CC1` [Compound 47, 1-[4-bromo-2-(2-chlorophenyl)phenyl]sulfonyl-4-fluoro-N—[(Z,1R)-1-methyl-3-methylsulfonyl-allyl]piperidine-4-carboxamide], the “absolute inhibition of pAKT” value in test [1] (FaDu cell line, internal standard, variation between runs) is listed as 43-98%. Besides, in test [1], the IC50 stood at 96.5 nM and the Emax is 100%. Moreover, the “absolute inhibition of pAKT” value in test [2] (H358 cell line, internal standard, variation between runs) is on record as 40-89%.
As for `C[C@H](/C=C\S(C)(=O)=O)NC(=O)[C@@]1(F)CCCN(C(=O)[C@H]2CN(CC(F)F)C[C@H]2c2ccccc2Cl)CC1` [Compound 197, (R)-1-((3R,4R)-4-(2-chlorophenyl)-1-(2,2-difluoroethyl)pyrrolidine-3-carbonyl)-4-fluoro-N-((R,Z)-4-(methylsulfonyl)but-3-en-2-yl) azepane-4-carboxamide], the IC50 in test [1] is 129 nM; in test [2], 103 nM; at PIK3CA, 134 nM. Further, the Emax in test [1] came out at 89%; in test [2] it was 91.4%.
`C[C@@H](/C=C\S(C)(=O)=O)NC(=O)C1(F)CCN(S(=O)(=O)c2cnc(C(F)(F)F)cc2-c2ccccc2Cl)CC1` [Compound 208, (S,Z)-1-((4-(2-chlorophenyl)-6-(trifluoromethyl)pyridin-3-yl)sulfonyl)-4-fluoro-N-(4-(methylsulfonyl)but-3-en-2-yl)piperidine-4-carboxamide]: the IC50 in test [1] turned out to be 88.2 nM; in test [2], 81.6 nM; on PIK3CA, 53.7 nM. For the same compound, the Emax in test [2] was determined as 95.9%.
Take `C[C@H](/C=C\S(C)(=O)=O)NC(=O)[C@]1(F)CCN(C(=O)[C@H]2CN(CC(F)(F)F)C[C@H]2c2ccccc2Cl)[C@@H](C)C1` (single isomer, unassigned) [Compound 302, (2*S,4*S)-1-((3R,4R)-4-(2-chlorophenyl)-1-(2,2,2-trifluoroethyl)pyrrolidine-3-carbonyl)-4-fluoro-2-methyl-N-((R,Z)-4-(methylsulfonyl)but-3-en-2-yl)piperidine-4-carboxamide]: the values for the IC50 (in test [1]; in test [2]; at PIK3CA) were 696 nM, 464 nM and 440 nM, respectively. Moreover, the Emax in test [1] came to 101%; in test [2], 87.2%.
In the case of `C[C@H](/C=C\S(C)(=O)=O)NC(=O)[C@@]1(F)CCCN(C(=O)[C@@H]2CCN(CC(F)(F)F)C[C@H]2c2ccccc2Cl)CC1` (single isomer, unassigned) [Compound 306, (R)-1-((3*R,4*R)-3-(2-chlorophenyl)-1-(2,2,2-trifluoroethyl)piperidine-4-carbonyl)-4-fluoro-N-((R,Z)-4-(methylsulfonyl)but-3-en-2-yl)azepane-4-carboxamide], the IC50 in test [1] came to 334 nM; in test [2], 263 nM; on PIK3CA, 310 nM. Besides, the Emax in test [1] turned out to be 93%; in test [2] it was 88%.
For `C[C@H](/C=C\S(C)(=O)=O)NC(=O)[C@@]1(F)CCCN(C(=O)[C@H]2CN(CC(F)(F)Cl)C[C@H]2c2ccccc2Cl)CC1` [Compound 195, (R)-1-((3R,4R)-1-(2-chloro-2,2-difluoroethyl)-4-(2-chlorophenyl)pyrrolidine-3-carbonyl)-4-fluoro-N-((R,Z)-4-(methylsulfonyl)but-3-en-2-yl)azepane-4-carboxamide] the same measures were 113 nM, 123 nM, 190 nM, 96.9% and 85%.
As to `COc1ccc(Cl)c(-c2cc(Cl)ncc2S(=O)(=O)N2CCC(F)(C(=O)N[C@H](C)/C=C\S(C)(=O)=O)CC2)c1` [Compound 217, (R,Z)-1-((6-chloro-4-(2-chloro-5-methoxyphenyl)pyridin-3-yl)sulfonyl)-4-fluoro-N-(4-(methylsulfonyl)but-3-en-2-yl)piperidine-4-carboxamide], the IC50 came to 980 nM on PIK3CA_C242, 953 nM in test [2] and 1450 nM at PIK3CA. Moreover, in test [2], the Emax is 74.6%.
Turning to `Cc1ccc([C@@H]2CN(CC(F)(F)F)C[C@@H]2C(=O)N2CCC[C@](F)(C(=O)N[C@H](C)/C=C\S(C)(=O)=O)CC2)c(Cl)c1` (single isomer, unassigned) [Compound 169, (R)-1-((3*R,4*R)-4-(2-chloro-4-methylphenyl)-1-(2,2,2-trifluoroethyl)pyrrolidine-3-carbonyl)-4-fluoro-N—((R,Z)-4-(methylsulfonyl)but-3-en-2-yl)azepane-4-carboxamide], the IC50 came to 154 nM in test [1], 202 nM in test [2] and 210 nM at PIK3CA. Moreover, the results for the Emax in test [1] and in test [2] were 108% and 106%, respectively.
As for `C[C@H](/C=C\S(C)(=O)=O)NC(=O)[C@@]1(F)CCCN(C(=O)[C@H]2CN(CC(F)(F)F)C[C@H]2c2c(F)cccc2Cl)CC1` [Compound 171, (R)-1-((3R,4R)-4-(2-chloro-6-fluorophenyl)-1-(2,2,2-trifluoroethyl)pyrrolidine-3-carbonyl)-4-fluoro-N—((R,Z)-4-(methylsulfonyl)but-3-en-2-yl)azepane-4-carboxamide], the IC50 in test [1] is 78.9 nM; in test [2], 82.6 nM; on PIK3CA it was 92.7 nM. Also, the Emax in test [1] stood at 97.8%; in test [2], 101%.

These data come from patent US20250026721A1, “COMPOUNDS AND METHODS FOR MODULATING RAS-PI3K” (Vividion Therapeutics, Inc., priority 2023, published 2025).
